These are literature values, as cited in US20110253140A1, “FORMULATIONS CONTAINING LARGE-SIZE CARRIER PARTICLES FOR DRY POWDER INHALATION AEROSOLS” (STC.UNM, priority 2008, published 2011).

Where two headings read alike, the source gives them in different places.

For the molecule `CCCC1O[C@@H]2C[C@H]3[C@@H]4CCC5=CC(=O)C=C[C@]5(C)[C@H]4[C@@H](O)C[C@]3(C)[C@]2(C(=O)CO)O1` (some centres unmarked) [budesonide], the “lung deposition, % of the metered dose” value reads like this: (PIF 35 L/min) 14.8%; (peak inspiratory flow rate (PIF) 60 L/min) 27.7%.
